According to US6737383B1, “Herbicidal oxadiazolidines” (priority 1999, dated 2004):

Columns and labels:
[1] = tested on: giant foxtail; assay: Test B pre/postemergence giant foxtail; format: in vivo, Setaria faberii
In short: (§1)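 Herbicidal effect was estimated by eye on a ten-point control scale after plants spent twelve to sixteen days in a greenhouse following soil or foliar treatment. Foliar sprays targeted plants at one to four leaves; all doses were formulated in a non-phytotoxic solvent with surfactant.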

[2] = tested on: velvetleaf; assay: Test B pre/postemergence velvetleaf; format: in vivo, Abutilon theophrasti; details: for Plant response rating, Velvetleaf: Rate 250 g/ha
In short: as §1

[3] = tested on: sugar beet; assay: Test B pre/postemergence sugar beet; format: in vivo, Beta vulgaris; details: for Plant response rating, Sugarbeets: Rate 250 g/ha
In short: as §1

[4] = tested on: morningglory; assay: Test B pre/postemergence morningglory; format: in vivo, Ipomoea hederacea
In short: as §1

[5] = tested on: cocklebur; assay: Test B pre/postemergence cocklebur; format: in vivo, Xanthium strumarium
In short: as §1

[6] = tested on: surinam grass; assay: Test B pre/postemergence surinam grass; format: in vivo, Brachiaria decumbens
In short: as §1

[7] = tested on: blackgrass; assay: Test B pre/postemergence blackgrass; format: in vivo, Alopecurus myosuroides
In short: as §1

[8] = tested on: purple nutsedge; assay: Test B pre/postemergence purple nutsedge; format: in vivo, Cyperus rotundus
In short: as §1

[9] = tested on: pigweed; assay: Test B pre/postemergence pigweed; format: in vivo, Amaranthus retroflexus
In short: as §1

[10] = tested on: bedstraw; assay: Test B pre/postemergence bedstraw; format: in vivo, Galium aparine; details: Preemergence
In short: as §1

[11] = tested on: corn; assay: Test B pre/postemergence corn; format: in vivo, Zea mays
In short: as §1

[12] = tested on: rape; assay: Test B pre/postemergence rape; format: in vivo, Brassica napus
In short: as §1

[13] = Postemergence, Rate 62 g/ha, scale 0 to 10, 0 is no effect, 10 is complete control
[14] = Postemergence, Rate 125 g/ha, scale of 0 to 10 where 0 is no effect and 10 is complete control
[15] = Postemergence, Rate 250 g/ha, scale 0 to 10, 0 no effect, 10 complete control
[16] = Preemergence, Rate 62 g/ha, scale 0 to 10 (0 no effect, 10 complete control)
[17] = Preemergence, Rate 125 g/ha, scale 0 to 10 (0 no effect, 10 complete control)
[18] = Preemergence, Rate 250 g/ha, scale of 0 to 10 where 0 is no effect and 10 is complete control
[19] = Preemergence, Rate 500 g/ha, scale 0 (no effect) to 10 (complete control)
[20] = Rate 500 g/ha, Postemergence, scale 0 to 10, 0 no effect, 10 complete control
[21] = Preemergence, Rate 125 g/ha, 0 is no effect, 10 is complete control
[22] = Preemergence, scale of 0 to 10 where 0 is no effect and 10 is complete control
[23] = Postemergence, scale 0 to 10, 0 is no effect, 10 is complete control

With `CCCn1c(=O)on(C(=O)N(c2ccc(F)cc2)C(C)C)c1=O` [Compound 91] as the compound, how does the “Giant foxtail plant response rating” value [1, 13] read?
The value was 8.

And the “Giant foxtail plant response rating” value [1, 14]?
Its value is 8.

What about the “Giant foxtail plant response rating” value [1, 15] of the same compound?
The value was 8.

What about the “Giant foxtail plant response rating” value [1, 16] of the same compound?
Its value is 10.

What about the “Plant response rating, Giant foxtail” value [1, 17] of the same compound?
The value was 10.

What about the “Plant response rating, Giant foxtail” value [1, 18] of the same compound?
The value was 10.

What about the “Giant foxtail plant response rating” value [1, 19] of the same compound?
The value was 10.

What about the “Giant foxtail plant response rating” value [1, 20] of the same compound?
Its value is 9.

What about the “Velvetleaf plant response rating” value [2, 13] of the same compound?
The value was 0.

And the “Velvetleaf plant response rating” value [2, 14]?
Its value is 0.

And the “Velvetleaf plant response rating” value [2, 16]?
The value was 6.

What about the “Velvetleaf plant response rating (0 to 10 scale)” value [2, 21] of the same compound?
The value was 6.

What about the “Plant response rating, Velvetleaf” value [2, 22] of the same compound?
Its value is 7.

And the “Velvetleaf plant response rating” value [2, 19]?
Its value is 8.

What about the “Plant response rating, Velvetleaf” value [2, 23] of the same compound?
Its value is 3.

What about the “Sugarbeets plant response rating” value [3, 13] of the same compound?
Its value is 3.

What about the “Sugarbeets plant response rating” value [3, 14] of the same compound?
Its value is 6.

What about the “Sugarbeets plant response rating” value [3, 16] of the same compound?
Its value is 7.

And the “Sugarbeets plant response rating (0 to 10 scale)” value [3, 21]?
The value was 7.

And the “Plant response rating, Sugarbeets” value [3, 22]?
Its value is 9.

And the “Sugarbeets plant response rating” value [3, 19]?
Its value is 10.

And the “Plant response rating, Sugarbeets” value [3, 23]?
Its value is 6.

And the “Sugarbeets plant response rating” value [3, 20]?
Its value is 6.

What about the “Morningglory plant response rating” value [4, 13] of the same compound?
The value was 7.

What about the “Morningglory plant response rating” value [4, 14] of the same compound?
The value was 7.

And the “Morningglory plant response rating” value [4, 15]?
Its value is 8.

What about the “Morningglory plant response rating” value [4, 16] of the same compound?
Its value is 0.

And the “Plant response rating, Morningglory” value [4, 17]?
Its value is 0.

And the “Plant response rating, Morningglory” value [4, 18]?
The value was 4.

And the “Morningglory plant response rating” value [4, 19]?
Its value is 6.

What about the “Morningglory plant response rating” value [4, 20] of the same compound?
The value was 9.

What about the “Cocklebur plant response rating” value [5, 13] of the same compound?
Its value is 3.

And the “Cocklebur plant response rating” value [5, 14]?
The value was 3.

And the “Cocklebur plant response rating” value [5, 15]?
Its value is 4.

And the “Cocklebur plant response rating” value [5, 16]?
The value was 0.

And the “Plant response rating, Cocklebur” value [5, 17]?
The value was 0.

And the “Cocklebur plant response rating” value [5, 19]?
Its value is 3.

And the “Cocklebur plant response rating” value [5, 20]?
The value was 4.

And the “B. signalgrass plant response rating” value [6, 13]?
The value was 4.

And the “B. signalgrass plant response rating” value [6, 15]?
The value was 8.

What about the “B. signalgrass plant response rating” value [6, 16] of the same compound?
The value was 7.

And the “Plant response rating, B. signalgrass” value [6, 17]?
The value was 10.

What about the “Plant response rating, B. signalgrass” value [6, 18] of the same compound?
The value was 10.

What about the “B. signalgrass plant response rating” value [6, 19] of the same compound?
Its value is 10.

And the “B. signalgrass plant response rating” value ([6]; Rate 125 g/ha, Postemergence, scale 0 to 10, 0 no effect, 10 complete control)?
Its value is 4.

And the “B. signalgrass plant response rating” value ([6]; Rate 500 g/ha, Postemergence, scale of 0 to 10 where 0 is no effect and 10 is complete control)?
Its value is 8.

What about the “Blackgrass plant response rating” value [7, 13] of the same compound?
The value was 8.

And the “Blackgrass plant response rating” value [7, 14]?
The value was 8.

And the “Blackgrass plant response rating” value [7, 15]?
The value was 8.

What about the “Blackgrass plant response rating” value [7, 16] of the same compound?
The value was 10.

What about the “Plant response rating, Blackgrass” value [7, 17] of the same compound?
The value was 10.

And the “Plant response rating, Blackgrass” value [7, 18]?
Its value is 10.

And the “Blackgrass plant response rating” value [7, 19]?
Its value is 10.

What about the “Blackgrass plant response rating” value [7, 20] of the same compound?
The value was 8.

What about the “Nutsedge plant response rating” value [8, 13] of the same compound?
Its value is 0.

And the “Nutsedge plant response rating” value [8, 14]?
The value was 0.

What about the “Nutsedge plant response rating” value [8, 15] of the same compound?
Its value is 0.

What about the “Nutsedge plant response rating” value [8, 16] of the same compound?
Its value is 0.

What about the “Plant response rating, Nutsedge” value [8, 17] of the same compound?
Its value is 0.

What about the “Plant response rating, Nutsedge” value [8, 18] of the same compound?
Its value is 0.

And the “Nutsedge plant response rating” value [8, 20]?
The value was 0.

And the “Redroot pigweed plant response rating” value [9, 13]?
Its value is 1.

What about the “Redroot pigweed plant response rating” value [9, 14] of the same compound?
Its value is 4.

And the “Redroot pigweed plant response rating” value [9, 16]?
The value was 6.

What about the “Plant response rating, Redroot pigweed” value [9, 17] of the same compound?
Its value is 9.

And the “Plant response rating, Redroot pigweed” value [9, 18]?
The value was 10.

What about the “Redroot pigweed plant response rating” value [9, 19] of the same compound?
Its value is 10.

What about the “Plant response rating, Redroot pigweed” value ([9]; Rate 250 g/ha, Postemergence, scale 0 to 10, 0 is no effect, 10 is complete control) of the same compound?
The value was 6.

And the “Redroot pigweed plant response rating” value [9, 20]?
Its value is 8.

What about the “Bedstraw plant response rating” value ([10]; Rate 62 g/ha, scale 0 to 10 (0 no effect, 10 complete control)) of the same compound?
Its value is 0.

What about the “Plant response rating, Bedstraw” value ([10]; Rate 125 g/ha, scale 0 to 10 (0 no effect, 10 complete control)) of the same compound?
Its value is 1.

And the “Plant response rating, Bedstraw” value ([10]; Rate 250 g/ha, scale of 0 to 10 where 0 is no effect and 10 is complete control)?
The value was 5.

And the “Bedstraw plant response rating” value ([10]; Rate 500 g/ha, scale 0 (no effect) to 10 (complete control))?
Its value is 8.

And the “Corn plant response rating” value [11, 13]?
Its value is 2.

And the “Corn plant response rating” value [11, 14]?
Its value is 2.

What about the “Corn plant response rating” value [11, 15] of the same compound?
Its value is 3.

What about the “Corn plant response rating” value [11, 16] of the same compound?
The value was 3.

And the “Plant response rating, Corn” value [11, 17]?
The value was 6.

What about the “Plant response rating, Corn” value [11, 18] of the same compound?
The value was 8.

And the “Corn plant response rating” value [11, 19]?
The value was 9.

What about the “Corn plant response rating” value [11, 20] of the same compound?
Its value is 5.

And the “Rape plant response rating” value [12, 13]?
Its value is 2.

What about the “Rape plant response rating” value [12, 14] of the same compound?
The value was 3.

And the “Rape plant response rating” value [12, 15]?
The value was 4.

What about the “Rape plant response rating” value [12, 16] of the same compound?
Its value is 7.

And the “Plant response rating, Rape” value [12, 17]?
Its value is 8.

What about the “Plant response rating, Rape” value [12, 18] of the same compound?
The value was 10.

And the “Rape plant response rating” value [12, 19]?
The value was 10.

And the “Rape plant response rating” value [12, 20]?
Its value is 10.
